# Laboratory results from article PMC7551771, “In-Depth In Silico Search for Cuttlefish (Sepia officinalis) Antimicrobial Peptides Following Bacterial Challenge of Haemocytes” (Marine Drugs, 2020).
# Like-named read-outs stand apart in the source and are kept apart here. No end group written: not given here.
# Legend:
# [1] = tested on: V. parahaemolyticus (CIP 73.30); experiment: microbe, parasite or virus in culture; assay type: cell-based, Vibrio parahaemolyticus; conditions: for MIC: read-out: MIC Vibrio parahaemo-lyticus
# Description: (§1) The minimal growth inhibitory concentrations (MICs) of synthetic peptides (Genecust) were evaluated on Vibrio alginolyticus (CIP 109819), V. splendidus (CIP 107715), V. aestuerianus (CIP 102971), V. anguillarum (CIP 64.14), V. parahaemolyticus (CIP 73.30), Halomonas aquamarina (CIP 105454T), Escherichia coli (CIP 54.8T), Aeromonas salmonicida (CIP 103209T), Enteroccocus faecalis (CIP 76.117) and Lactococcus garvieae (CIP 104369) obtained from the “Collection de l’Institut Pasteur”. Bacteria were cultured in adapted media: Homemade marine broth (HMB, sea salts 20 g/L, peptone 5 g/L, yeast extract 3 g/L) for Vibrio species and H. aquamarina; Luria-Bertani (peptone 10 g/L, yeast extract 5 g/L, NaCl 10 g/L) for E. faecalis and E. coli; Trypticasein Soy Broth (TSB, Conda, 40 g/L) for A. salmonicida, and Brain Heart Infusion (BHI) (Conda, 37 g/L) for L. garvieae. MICs were determined in triplicate by liquid growth inhibition assays adapted from Hetru and Bulet. Briefly, 10 µL of peptide solution were incubated in Bioscreen honeycomb-well plates with 90 µl of bacterial suspension at a starting OD600 of 0.001 in BHI for L. garvieae, poor broth (peptone 10 g/L, NaCl 5 g/L) for E. faecalis and E. coli, TSB for A. salmonicida, HMB for H. aquamarina and saline poor broth (peptone 10 g/L, NaCl 15 g/L) for Vibrio species. Bacterial growth was monitored for 16 h by measuring OD600 values every 5 min (Bioscreen C, Labsystem, Finland). The peptides were tested alone at concentrations of 5 µM, 10 µM, 20 µM and 50 µM. For synergy, peptides pairs were tested at concentrations of 5 µM, 10 µM and 20 µM. Oxytetracycline at 5 µM and 10 µM was used as a positive control, and water was used as a blank. MICs were expressed in µM as an [a]–[b] concentration interval where [a] was the last concentration with bacterial growth and [b] was the first concentration with 100% bacterial growth inhibition. MBCs (minimal bactericidal concentrations) were expressed in µM as an [a]–[b] concentration interval where [a] was the last concentration with bacterial growth and [b] was the first concentration that killed 100% of the bacteria.
# [2] = tested on: V. anguillarum (CIP 64.14); experiment: microbe, parasite or virus in culture; assay type: cell-based, Vibrio anguillarum
# Description: as §1
# [3] = tested on: Escherichia coli (CIP 54.8T); experiment: microbe, parasite or virus in culture; assay type: cell-based
# Description: as §1
# [4] = tested on: Vibrio alginolyticus (CIP 109819); experiment: microbe, parasite or virus in culture; assay type: cell-based
# Description: as §1
# [5] = tested on: V. splendidus (CIP 107715); experiment: microbe, parasite or virus in culture; assay type: cell-based, Vibrio splendidus
# Description: as §1
# [6] = tested on: V. aestuerianus (CIP 102971); experiment: microbe, parasite or virus in culture; assay type: cell-based, Vibrio aestueranius; conditions: for MBC: read-out: MBC Vibrio aestueranius
# Description: as §1
# human red blood cells = assay type: cell-based
# Description: The haemolytic activity of the synthetic peptides was determined in triplicate on human red blood cells (RBCs) as described by Duval and collaborators. Briefly, RBCs were pelleted and washed three times in phosphate-buffered saline (PBS). Then, they were resuspended in PBS to obtain a 1% solution of RBC. Ten microliters of peptide solution were incubated with 90 µL of the RBC 1% solution for 1 h at 37 °C. The peptides were diluted in PBS and tested at different concentrations: 5 µM, 20 µM, 50 µM and 100 µM. Haemolytic activity was determined by measuring the OD at 415 nm. Zero haemolysis and total (100%) haemolysis were determined with PBS and 1% Triton X-100 solutions, respectively.
# [7] = tested on: Enteroccocus faecalis (CIP 76.117); experiment: Liquid growth inhibition assay (MIC/MBC); assay type: cell-based; conditions: Enterococcus faecalis, CIP76, poor broth, triplicate, interval [a]-[b], '-' = not active
# Description: as §1
# [8] = tested on: Halomonas aquamarina (CIP 105454T); experiment: Liquid growth inhibition assay (MIC/MBC); assay type: cell-based; conditions: Vreelandella aquamarina; HMB, starting OD600 0.001, 16 h, triplicate; interval [a]-[b]; '-' = not active
# Description: as §1
# [9] = tested on: Lactococcus garvieae (CIP 104369); experiment: Liquid growth inhibition assay (MIC/MBC); assay type: cell-based; conditions: CIP104369, BHI, triplicate, interval [a]-[b], '-' = not active
# Description: as §1
# [10] = tested on: Aeromonas salmonicida (CIP 103209T); experiment: Liquid growth inhibition assay (MIC/MBC); assay type: cell-based; conditions: TSB, triplicate, interval [a]-[b], '-' = not active
# Description: as §1
molecule,measurement,setting,value
GFCNFMHLKPISRELRRELYGRTRRRRK [GK28],MBC Vibrio parahaemo-lyticus,"[1]; CIP 73, 16 h",10 to 20 µM
same,MIC,"[1]; CIP 73, 16 h",≤5 µM
same,MBC Vibrio anguillarum,"[2]; CIP 64, 16 h",20 to 50 µM
same,MIC Vibrio anguillarum,"[2]; CIP 64, 16 h",10 to 20 µM
same,MBC Escherichia coli,"[3]; CIP 54, 16 h",20 to 50 µM
same,MIC,"[3]; CIP 54, 16 h",≤5 µM
same,MIC,"[4]; CIP 109819, 16 h",≤5 µM
same,MBC Vibrio alginolyticus,"[4]; saline poor broth, triplicate, interval [a]-[b], b = first concentration that killed 100% of the bacteria, '-' = not active",20 to 50 µM
same,MBC,"[5]; CIP 107715, 16 h, read-out: MBC Vibrio splendidus",≤5 µM
same,MIC,"[5]; CIP 107715, 16 h, read-out: MIC Vibrio splendidus",≤5 µM
same,MIC Vibrio aestueranius,"[6]; CIP 102971, 16 h",10 to 20 µM
same,MBC,"[6]; CIP 102971, 16 h",>50 µM
NYWLLVLRRLLITKKVMWF [NF19],MBC Vibrio splendidus,"[5]; CIP 107715, 16 h",10 to 20 µM
same,MIC Vibrio splendidus,"[5]; CIP 107715, 16 h",5 to 10 µM
same,concentrations at which haemolytic,human red blood cells,50 to 100 µM
"CN(C)[C@@H]1C(O)=C(C(N)=O)C(=O)[C@@]2(O)C(O)=C3C(=O)c4c(O)cccc4[C@@](C)(O)[C@H]3[C@H](O)[C@@H]12 [Ox, Oxytetracycline]",MIC,"[1]; Vibrio parahaemolyticus, CIP73, saline poor broth, starting OD600 0.001, 16 h, triplicate, interval [a]-[b], '-' = not active",≤ 5 µM
same,MBC,"[1]; Vibrio parahaemolyticus, CIP73, saline poor broth, triplicate, interval [a]-[b], '-' = not active, read-out: MBC Vibrio parahaemo-lyticus",≤ 5 µM
same,MIC,"[1]; saline poor broth, starting OD600 0.001, 16 h, triplicate, interval [a]-[b], '-' = not active",≤5 µM
same,MIC,"[2]; Vibrio anguillarum, CIP64, saline poor broth, starting OD600 0.001, 16 h, triplicate, interval [a]-[b], '-' = not active",≤ 5 µM
same,MBC,"[2]; Vibrio anguillarum, CIP64, saline poor broth, triplicate, interval [a]-[b], '-' = not active",≤ 5 µM
same,MIC,"[3]; Escherichia coli, CIP54, poor broth, starting OD600 0.001, 16 h, triplicate, interval [a]-[b], '-' = not active",≤ 5 µM
same,MBC,"[3]; Escherichia coli, CIP54, poor broth, triplicate, interval [a]-[b], '-' = not active",≤ 5 µM
same,MIC,"[4]; Vibrio alginolyticus, CIP109819, saline poor broth, starting OD600 0.001, growth monitored 16 h, triplicate, interval [a]-[b], b = first concentration with 100% growth inhibition, peptides 5-50 µM, pairs 5-20 µM, oxytetracycline 5 and 10 µM, '-' = not active",≤ 5 µM
same,MBC,"[4]; Vibrio alginolyticus, CIP109819, saline poor broth, triplicate, interval [a]-[b], b = first concentration that killed 100% of the bacteria, '-' = not active",≤ 5 µM
same,MIC,"[4]; saline poor broth, starting OD600 0.001, growth monitored 16 h, triplicate, interval [a]-[b], b = first concentration with 100% growth inhibition, peptides 5-50 µM, pairs 5-20 µM, oxytetracycline 5 and 10 µM, '-' = not active",≤5 µM
same,MIC,"[7]; starting OD600 0.001, 16 h",≤ 5 µM
same,MBC,[7],5 to 10 µM
same,MIC,[8],> 10 µM
same,MIC,"[9]; starting OD600 0.001, 16 h",≤ 5 µM
same,MBC,[9],> 10 µM
same,MIC,"[10]; starting OD600 0.001, 16 h",≤ 5 µM
same,MBC,[10],≤ 5 µM
same,MIC,"[5]; Vibrio splendidus, CIP107715, saline poor broth, starting OD600 0.001, 16 h, triplicate, interval [a]-[b], '-' = not active",≤ 5 µM
same,MBC,"[5]; Vibrio splendidus, CIP107715, saline poor broth, triplicate, interval [a]-[b], '-' = not active",≤ 5 µM
same,MIC,"[5]; saline poor broth, starting OD600 0.001, 16 h, triplicate, interval [a]-[b], '-' = not active, read-out: MIC Vibrio splendidus",≤5 µM
same,MIC,"[6]; Vibrio, CIP102971, saline poor broth, starting OD600 0.001, 16 h, triplicate, interval [a]-[b], '-' = not active, read-out: MIC Vibrio aestueranius",≤ 5 µM
same,MBC,"[6]; Vibrio, CIP102971, saline poor broth, triplicate, interval [a]-[b], '-' = not active",≤ 5 µM
ASSFLTPRLSSLGKRSWAV [AV19],MBC Vibrio parahaemo-lyticus,"[1]; CIP 73, 16 h",20 to 50 µM
same,MIC Vibrio parahaemo-lyticus,"[1]; CIP 73, 16 h",10 to 20 µM
same,MBC Vibrio splendidus,"[5]; CIP 107715, 16 h",10 to 20 µM
same,MIC Vibrio splendidus,"[5]; CIP 107715, 16 h",10 to 20 µM
same,concentrations at which haemolytic,human red blood cells,50 to 100 µM
